Experimental findings from US9408387B2, “Safening 6-amino-2-(substituted phenyl)-5-substituted-4-pyrimidinecarboxylate herbicide injury on cereal crops” (Dow AgroSciences LLC, priority 2009, dated 2016) are described below.

Common to all, as to type: in vivo
For one test, the system named is SASKR. The test is described as follows: Postemergence herbicidal activity, greenhouse, visual injury: SASKR. The settings on record: 20-22 d. On the procedure:
(§1) Evaluation of Postemergence Herbicidal Safening in Cereal Crops
(§2) Seeds of the desired test plant species were planted in Sun Gro MetroMix® 306 planting mixture, which typically has a pH of 6.0 to 6.8 and an organic matter content of about 30 percent, in plastic pots with a surface area of 103.2 square centimeters (cm^2). When required to ensure good germination and healthy plants, a fungicide treatment and/or other chemical or physical treatment was applied. The plants were grown for 7-36 days (d) in a greenhouse with an approximate 14-hour (h) photoperiod which was maintained at about 18° C. during the day and 17° C. during the night. Nutrients and water were added on a regular basis and supplemental lighting was provided with overhead metal halide 1000-Watt lamps as necessary. The plants were employed for testing when they reached the second or third true leaf stage.
(§3) Treatments consisted of the acids or esters of compounds 1-10 and cloquintocet-mexyl (CQC-M), fenchlorazole-ethyl, mefenpyr-diethyl alone and in combination. Weighed amounts of acid or methyl esters of the compounds of formula (I) were dissolved in a volume of 97:3 v/v acetone/dimethylsulfoxide (DMSO) to obtain concentrated solutions. […] The concentrated solutions of the test compound were diluted with the addition of an aqueous mixture containing acetone, water, isopropyl alcohol, DMSO, Agri-Dex crop oil concentrate, and Triton® X-77 surfactant in a 64.7:26.0:6.7:2.0:0.7:0.01 v/v ratio. Test compounds were diluted to the appropriate application rate with a dilution solution which was prepared by mixing the appropriate volume of 97:3 v/v acetone/DMSO and the appropriate volume of an aqueous mixture containing acetone, water, isopropyl alcohol, DMSO, Agri-Dex crop oil concentrate, and Triton® X-77 surfactant in a 64.7:26.0:6.7:2.0:0.7:0.01 v/v ratio. Compound requirements are based upon a 12 mL application volume at a rate of 187 liters per hectare (L/ha). The concentrated solutions of the safener were prepared following the same procedure. Weighed amounts of safener were dissolved in a volume of 97:3 v/v acetone/DMSO to obtain concentrated safener solutions.
(§4) Spray solutions of the herbicide safener and test compound mixtures were prepared by adding the concentrated solutions to the appropriate amount of dilution solution to form 12 mL spray solution with active ingredients in combinations.
(§5) Formulated compounds were applied to the plant material with an overhead Mandel track sprayer equipped with 8002E nozzles calibrated to deliver 187 L/ha over an application area of 0.503 square meters (m^2) at a spray height of 18 inches (43 centimeters (cm)) above average plant canopy. Control plants were sprayed in the same manner with the solvent blank.
(§6) The treated plants and control plants were placed in a greenhouse as described above and watered by sub-irrigation to prevent wash-off of the test compounds. After 20-22 d, the condition of the test plants as compared with that of the control plants was determined visually and scored on a scale of 0 to 100 percent where 0 corresponds to no injury and 100 corresponds to complete kill.
(§7) Colby's equation was used to determine the herbicidal effects expected from the mixtures (Colby, S. R. Calculation of the synergistic and antagonistic response of herbicide combinations. Weeds 1967, 15, 20-22.).
(§8) The following equation was used to calculate the expected activity of mixtures containing two active ingredients, A and B: Expected=A+B−(A×B/100)
(§9) A=observed efficacy of active ingredient A at the same concentration as used in the mixture.
(§10) B=observed efficacy of active ingredient B at the same concentration as used in the mixture.

The subject of test [1] is kochia (Kochia scoparia L; KCHSC). The test is described as follows: Postemergence herbicidal activity, greenhouse, visual injury: kochia. The following applies: 20-22 d. On the procedure: as §1, §2, §3, §4, §5, §6, §7, §8, §9, §10
Test [2] deals with spring wheat (Triticum aestivum L; TRZAS). Briefly: Postemergence herbicidal safening in cereal crops, greenhouse, visual injury: spring wheat. The following applies: Triticum aestivum, post-emergence, 480 h, 20-22 d, read-out: TRZAS Ob (visual injury); for pest or weed control at 35 g/ha: herbicide alone 35 g ae/ha; for pest or weed control at 70 g/ha: herbicide alone 70 g/ha; for pest or weed control at 140 g/ha: herbicide alone 140 g/ha; for pest or weed control at 8.75 g/ha: herbicide alone 8.75 g/ha. The method, then:
as §1, §2, §3, §4, §5, §6, §7, §8, §9, §10

The subject of the next test is CIRAR. The test is described as follows: Postemergence herbicidal activity, greenhouse, visual injury: CIRAR. The following applies: 20-22 d. The method, then: as §1, §2, §3, §4, §5, §6, §7, §8, §9, §10
In test [3] the test system is spring barley (Hordeum vulgare L; HORVS). The test is described as follows: Postemergence herbicidal safening in cereal crops, greenhouse, visual injury: spring barley. The settings on record: Hordeum vulgare, post-emergence, 480 h, 20-22 d, read-out: HORVS Ob (visual injury); for pest or weed control at 35 g/ha: herbicide alone 35 g ae/ha; for pest or weed control at 70 g/ha: herbicide alone 70 g/ha; for pest or weed control at 140 g/ha: herbicide alone 140 g/ha; for pest or weed control at 8.75 g/ha: herbicide alone 8.75 g/ha. On the procedure:
as §1, §2, §3, §4, §5, §6, §7, §8, §9, §10

Test [4] has as its system purple deadnettle (Lamium purpureum L; LAMPU). Briefly: Postemergence herbicidal activity, greenhouse, visual injury: purple deadnettle. The settings on record: Lamium purpureum, post-emergence, 480 h, 20-22 d, read-out: LAMPU Ob (visual injury); for pest or weed control at 35 g/ha: herbicide alone 35 g ae/ha; for pest or weed control at 70 g/ha: herbicide alone 70 g/ha; for pest or weed control at 140 g/ha: herbicide alone 140 g/ha. The method, then:
as §1, §2, §3, §4, §5, §6, §7, §8, §9, §10

The subject of test [5] is corn poppy (Papaver rhoeas L; PAPRH). Briefly: Postemergence herbicidal activity, greenhouse, visual injury: corn poppy. The following applies: 20-22 d. On the procedure: as §1, §2, §3, §4, §5, §6, §7, §8, §9, §10
For another test, the system named is MATCH. The test is described as follows: Postemergence herbicidal activity, greenhouse, visual injury: MATCH. The following applies: 20-22 d. On the procedure:
as §1, §2, §3, §4, §5, §6, §7, §8, §9, §10

The subject of test [6] is bird's-eye speedwell (Veronica persica L; VERPE). Briefly: Postemergence herbicidal activity, greenhouse, visual injury: bird's-eye speedwell. The settings on record: herbicide alone 8.75 g/ha; 20-22 d. The method, then:
as §1, §2, §3, §4, §5, §6, §7, §8, §9, §10

Test [7] has as its system winter barley (Hordeum vulgare L; HORVW). Briefly: Postemergence herbicidal safening in cereal crops, greenhouse, visual injury: winter barley. The following applies: herbicide alone 8.75 g/ha; 20-22 d. On the procedure: as §1, §2, §3, §4, §5, §6, §7, §8, §9, §10
Test [8] deals with durum wheat (Triticum durum L; TRZDU). Briefly: Postemergence herbicidal safening in cereal crops, greenhouse, visual injury: durum wheat. The following applies: herbicide alone 8.75 g/ha; 20-22 d. On the procedure:
as §1, §2, §3, §4, §5, §6, §7, §8, §9, §10

In test [9] the test system is winter wheat (Triticum aestivum L; TRZAW). Briefly: Postemergence herbicidal safening in cereal crops, greenhouse, visual injury: winter wheat. The settings on record: herbicide alone 8.75 g/ha; 20-22 d. On the procedure: as §1, §2, §3, §4, §5, §6, §7, §8, §9, §10

As to `C=Cc1c(N)nc(-c2ccc(Cl)c(N(C)C)c2F)nc1C(=O)O` [Compound 7, 6-amino-2-(4-chloro-3-dimethylamino-2-fluorophenyl)-5-vinylpyrimidine-4-carboxylic acid], the “SASKR Ob (visual injury)” value is 75% in the test on SASKR (herbicide alone 70 g/ha) and 80% with SASKR (herbicide alone 140 g/ha). For the same compound, the “KCHSC Ob (visual injury)” value amounted to 65% in test [1] (herbicide alone 70 g/ha) and 75% in test [1] (herbicide alone 140 g/ha). The pest or weed control at 35 g/ha in test [2] was 75%; in test [3] it was 70%; in test [4], 52%. The pest or weed control at 70 g/ha in test [2] is 60%; in test [3] it was 30%. Besides, the pest or weed control at 140 g/ha in [2] amounted to 70%; in [3], 45%. The entries for the “CIRAR Ob (visual injury)” value in the test on CIRAR (herbicide alone 70 g/ha) and in the test on CIRAR (herbicide alone 140 g/ha) were 80% and 85%, respectively.

Consider `C=Cc1c(N)nc(-c2ccc(Cl)c(OC)c2F)nc1C(=O)OC` [Compound 5, 6-amino-2-(4-chloro-2-fluoro-3-methoxyphenyl)-5-vinylpyrimidine-4-carboxylic acid methyl ester], for which the pest or weed control at 35 g/ha in test [2] is 25%; in [3], 10%; in test [4], 75%. For the same compound, the figures for the pest or weed control at 70 g/ha in test [2], in test [3] and in [4] were 18%, 8% and 95%, respectively. Moreover, the pest or weed control at 140 g/ha was determined as 40% in [2], 0% in test [3] and 95% in [4]. The “CIRAR Ob (visual injury)” value with CIRAR (herbicide alone 70 g/ha) is 84%; in the test on CIRAR (herbicide alone 140 g/ha), 85%. For the same compound, the “PAPRH Ob (visual injury)” value in test [5] (herbicide alone 70 g/ha) was determined as 89%; in test [5] (herbicide alone 140 g/ha) it was 90%.

Regarding `COc1c(N)nc(-c2ccc(Cl)c(F)c2)nc1C(=O)O` [Compound 9, 6-amino-2-(4-chloro-3-fluorophenyl)-5-methoxypyrimidine-4-carboxylic acid], the results for the “MATCH Ob (visual injury)” value in the test with MATCH (herbicide alone 70 g/ha) and in the test with MATCH (herbicide alone 140 g/ha) were 93% and 97%, respectively. Further, the “KCHSC Ob (visual injury)” value in [1] (herbicide alone 70 g/ha) and in test [1] (herbicide alone 140 g/ha) was 100% each time. The pest or weed control at 70 g/ha in [2] was 60%; in test [3], 50%; in test [4], 95%. For the same compound, the pest or weed control at 140 g/ha in [2] came to 70%; in [3], 70%; in test [4], 100%.

On to `COc1c(N)nc(-c2ccc(Cl)c(OC)c2F)nc1C(=O)O` [Compound 8, 6-amino-2-(4-chloro-2-fluoro-3-methoxyphenyl)-5-methoxypyrimidine-4-carboxylic acid], for which the entries for the “KCHSC Ob (visual injury)” value in test [1] (herbicide alone 70 g/ha) and in [1] (herbicide alone 140 g/ha) were 90% and 100%, respectively. Besides, the pest or weed control at 35 g/ha was 83% in [2], 75% in test [3] and 100% in test [4]. The pest or weed control at 70 g/ha in [2] turned out to be 90%; in test [3], 50%; in test [4] it was 100%. In addition, the results for the pest or weed control at 140 g/ha in test [2], in test [3] and in test [4] were 95%, 85% and 100%, respectively. The “PAPRH Ob (visual injury)” value in test [5] (herbicide alone 70 g/ha) and in test [5] (herbicide alone 140 g/ha) was 100% in each case.

Turning to `C=Cc1c(N)nc(-c2ccc(Cl)c(OC)c2F)nc1C(=O)O` [Compound 2, 6-amino-2-(4-chloro-2-fluoro-3-methoxyphenyl)-5-vinylpyrimidine-4-carboxylic acid], in test [6], the “VERPE Ob (visual injury)” value was 70%. Besides, in [1] (herbicide alone 8.75 g/ha), the “KCHSC Ob (visual injury)” value was found to be 40%. For the same compound, the pest or weed control at 8.75 g/ha came to 41% in test [2] and 24% in test [3]. The figures for the pest or weed control at 35 g/ha in test [2], in test [3] and in [4] were 80%, 68% and 77%, respectively. Further, the “HORVW Ob (visual injury)” value in test [7] was determined as 18%. Besides, the “TRZDU Ob (visual injury)” value in test [8] was determined as 30%. For the same compound, the “PAPRH Ob (visual injury)” value in test [5] (herbicide alone 8.75 g/ha) came to 80%. Besides, the “TRZAW Ob (visual injury)” value in test [9] is reported as 43%.

Turning to `COC(=O)c1nc(-c2ccc(Cl)c(OC)c2F)nc(N)c1OC` [Compound 4, 6-amino-2-(4-chloro-2-fluoro-3-methoxyphenyl)-5-methoxypyrimidine-4-carboxylic acid methyl ester], the values for the pest or weed control at 8.75 g/ha in [2] and in test [3] were 33% and 25%, respectively. Also, the results for the pest or weed control at 35 g/ha in [2], in test [3] and in test [4] were 80%, 75% and 100%, respectively. Also, the “HORVW Ob (visual injury)” value in [7] turned out to be 7%. In test [8], the “TRZDU Ob (visual injury)” value was 18%. Further, in test [9], the “TRZAW Ob (visual injury)” value is listed as 22%.
